Measured values as given in patent US5656743A, “Oligonucleotide modulation of cell growth” (priority 1994, dated 1997).
Entries after “also recorded” stand apart in the source; their conditions may differ.

Legend:
[1] = test system: human tumor cells (HeLa, LOX, SN12A1); format: cell-based; details: 0.1 and 1 μM oligonucleotide + 10 μg/ml DOTMA 4 h; for inhibition of the tumors (in words): FIG. 2 panels A-C
[2] = test system: HRCC-SN12A1 cells (human renal cell carcinoma); assay: Cell growth of HRCC-SN12A1 cells by counting attached cells after oligonucleotide treatment; format: cell-based
Procedure: HeLa S3 (ATCC CCL 2.2, human epithelioid cervix carcinoma) cells were subcultured in Dulbecco's modified Eagle Medium (D-MEM) (GIBCO BRL), supplemented with 10% fetal bovine serum (FBS) (GIBCO BRL) and 1% penicillin-streptomycin liquid (100 000 IU/ml penicillin G sodium, 10 mg/ml streptomycin sulfate in 0.85% saline) (GIBCO BRL). LOX (IMVI, human amelanotic melanoma) cells (provided by Dr. D. J. Dykes, Southern Research Institute, Birmingham, Ala.) were subcultured in RPMI 1640 medium (RPMI) (GIBCO BRL) supplemented with 10% FBS and 1% penicillin-streptomycin liquid. […] All cells were negative for mycoplasma infection as determined by a DNA stain (McGarrity, Methods in Enzymology: Cell Culture, Vol 63, p23 (Academic Press, San Diego; 1979); Freshney, Culture of Animal Cells: A Manual of Basic Techniques (Wiley-Liss, NY; 1987). […]
The effect of oligonucleotides on cell growth was determined by counting the attached cells in the 6-well plates through a phase contrast inverted microscope (Nikon Diaphot, 10×objective, 10×ocular, 4×magnification extender, total magnification: 400×). The attached cells on 10 randomly chosen fields were counted (10-200 cells/field) and the total cell number was calculated by multiplying the mean cell number by the correction factor (f6-well =6028, f24-well =1258, f10 cm dish =35,670). […]

human LOX ascites tumor = assay: Tumor growth inhibition, i.p. LOX ascites tumor in nude mice; format: in vivo; details: complexed with DOTMA
Procedure: Intraperitoneally (i.p.) transplanted, exponentially growing LOX ascites tumor cells were harvested from nude mice, washed and resuspended in serum-free RPMI medium. A total of 2×10^6 viable cells (determined by trypan blue exclusion) in 0.5 ml RPMI medium were injected i.p. into the homozygous mutant, HSd: Athymic Nude-nu male mice (Sambrook, et al., 1989). Treatment was started 1 day after the i.p. injection of tumor cells and the oligonucleotide in the presence of DOTMA was given i.p. on days 1, 3 and 5. Tumor growth was followed by daily inspection of the animals. The experiments were terminated when the ascite tumors were visible both in controls and treated animals, generally by day 14. All animal experimentation followed the guidelines of the Baylor College of Medicine and New York Academy of Sciences.
The tumor growth inhibitory effect of antisense oligonucleotide SEQ ID NO: 9 was studied on i.p. injected LOX tumor cells. […] No tumor growth inhibition or other toxic effects occurred after treatment with PBS alone or DOTMA in PBS (1-10 mg/kg bodyweight).

[3] = format: in vitro ADME; details: after 24 hours in 10% serum-containing medium
Procedure: (§1) Phosphorothioate oligonucleotide SEQ ID NO: 9 was labeled with [γ^32 P]ATP by T4 polynucleotide kinass to analyze cellular uptake, efflux and stability in the presence or absence of DOTMA. […] 5-15 fold more of oligonucleotide SEQ ID NO: 9 was associated with the cells in the presence of DOTMA than in its absence. 60% of the oligonucleotide localized to the nuclei after 4 hours treatment in the presence of DOTMA, approximately 50% remained in the cells 20 hours post-treatment. The stability of phosphorothioate oligonucleotides was much greater than the phosphodiester oligonucleotides. Only 40% degradation of the phosphorothioate oligonucleotide was found after 24 hours in 10% serum-containing medium. More than 50% of the phosphodiester oligonucleotide was degraded within 1 hour. DOTMA enhanced the activity of antisense oligonucleotide phosphorothioate.

[4] = test system: HeLa S3 cells (human epithelioid cervix carcinoma); assay: Cell growth of HeLa cells by counting attached cells after oligonucleotide treatment; format: cell-based; details: for cell growth inhibitory effect: HeLa cells (FIG. 1A), 0.1-0.5 μM oligonucleotide + 10 μg/ml DOTMA, ±SD; for cell growth inhibitory effect / inhibition of cell growth (in words): serum-free, 4 h; for log HeLa cell kill: 2 days after treatment, oligonucleotide complexed with DOTMA 4 h; for inhibition of cell growth (in words): oligonucleotide + 10 μg/ml DOTMA
[5] = Cellular uptake, efflux and localization of 32P-labeled oligonucleotide; format: in vitro ADME
Procedure: as §1

[6] = test system: LOX cells (human amelanotic melanoma); assay: Cell growth of LOX cells by counting attached cells after oligonucleotide treatment; format: cell-based
Procedure: HeLa S3 (ATCC CCL 2.2, human epithelioid cervix carcinoma) cells were subcultured in Dulbecco's modified Eagle Medium (D-MEM) (GIBCO BRL), supplemented with 10% fetal bovine serum (FBS) (GIBCO BRL) and 1% penicillin-streptomycin liquid (100 000 IU/ml penicillin G sodium, 10 mg/ml streptomycin sulfate in 0.85% saline) (GIBCO BRL). LOX (IMVI, human amelanotic melanoma) cells (provided by Dr. D. J. Dykes, Southern Research Institute, Birmingham, Ala.) were subcultured in RPMI 1640 medium (RPMI) (GIBCO BRL) supplemented with 10% FBS and 1% penicillin-streptomycin liquid. HRCC-SN12A1 (human renal cell carcinoma) cells (established from the ascitic cells of intrarenally transplanted HRCC-bearing nude mouse and provided by Dr. I. J. Fidler, M.D., Anderson Cancer Center, Houston, Tex.)(Naito, etal., 1986) were subcultured in Eagle minimum essential medium (MEM) (GIBCO BRL), supplemented with 10% FBS, vitamins, L-glutamine, sodium pyruvate, non-essential amino acids and 1% penicillin-streptomycin liquid. All cells were negative for mycoplasma infection as determined by a DNA stain (McGarrity, Methods in Enzymology: Cell Culture, Vol 63, p23 (Academic Press, San Diego; 1979); Freshney, Culture of Animal Cells: A Manual of Basic Techniques (Wiley-Liss, NY; 1987).
Twenty-four hours after plating (1×10^5 cells into 6-well cell culture dishes), the cells growing in monolayer were gently washed once with 5 ml serum-free D-MEM, RPMI and MEM medium for HeLa S3, LOX and HRCC-SN12A1 cells, respectively. Freshly prepared serum-free mediumcontaining 10 μg/ml cationic lipid (DOTMA); Chiang, et al., J. Biol. Chem., 266:18162 (1991); Bennett, et al., J. Liposome Research, in press (1992); were mixed with oligonucleotide and preincubated at 37° C. in a humidified incubator for 15 minutes to allow formation of an oligonucleotide-cationic lipid complex. The oligonucleotide concentrations were between 0.001 and 10 μM, but for the majority of the experiments for HeLa S3 cells 0.1 μM, for LOX cells 0.03-0.05-0.1 μM, and for HRCC cells 0.1 μM concentrations were used. […]
The effect of oligonucleotides on cell growth was determined by counting the attached cells in the 6-well plates through a phase contrast inverted microscope (Nikon Diaphot, 10×objective, 10×ocular, 4×magnification extender, total magnification: 400×). The attached cells on 10 randomly chosen fields were counted (10-200 cells/field) and the total cell number was calculated by multiplying the mean cell number by the correction factor (f6-well =6028, f24-well =1258, f10 cm dish =35,670). […] The dead floating cells (viability was determined by […]) were not counted. The cell number in each well was determined before treatment, immediately after treatment, and daily after treatment for 5-7 days. […]

[7] = test system: HeLa and LOX human tumor cell lines; assay: Nuclear aberrations, mitoses and cell growth in HeLa and LOX cells by light and fluorescence microscopy; format: cell-based; details: 0.2 or 0.4 μM + DOTMA 4 h
Procedure: HeLa and LOX human tumor cell lines were analyzed by light and fluorescence microscopy after 4 hours treatment with 0.2 or 0.4 μM antisense (SEQ ID NO: 9) or sense (SEQ ID NO: 16) oligonucleotide with DOTMA. […] Nucleolar unraveling and fragmentation and chromatin alterations were observed. In some LOX cells chromatin was condensed as in prophase arrest. In HeLa cells, chromatin was condensed and compacted. Decreased mitoses correlated with decreased ^3 H-thymidine incorporation. Cell growth decreased 70-80%.

[8] = two days after treatment, DOTMA 4 h serum-free
[9] = 32P-labeled phosphorothioate oligonucleotide

CACCCGCCTT GGCCTCCCAC (antisense CACCCGCCTTGGCCTCCCAC; chemistry not given here) [SEQ ID NO: 9, p120 antisense oligonucleotide, 3' UTR]
inhibition of the tumors (in words) [1]: marked inhibition | log-cell kill ([1]; especially 3-4 days after treatment): 0.5 to 1.5 log | maximum cytocidal effect (log cell kill) ([2]; 4 days after treatment): 1.3 log | log cell kill [2, 8]: 0.7 log | inhibition of cell growth in vivo (human LOX ascites tumor; 0.65 mg/kg bodyweight i.p. days 1, 3, 5): 80% | inhibition of cell growth in vivo (human LOX ascites tumor; 6.5 mg/kg bodyweight i.p. days 1, 3, 5): 90% | IC50, tumor growth inhibition in vivo (human LOX ascites tumor; i.p. days 1, 3, 5): 0.26 mg/kg bodyweight | degradation [3]: 40% | cell growth inhibitory effect [4]: 87.6±11.3% | effect of repeated treatment ([4]; HeLa cells, 0.1 μM + DOTMA, two 4 h treatments on days 1 and 3): additive effects | log HeLa cell kill ([4]; HeLa cells): 0.7 log | inhibition of cell growth in complete medium ([4]; HeLa cells, DOTMA-mediated treatment in complete (10% FBS) medium, compared to serum-free (FIG. 1C)): very slight | inhibition of cell growth (in words) ([4]; HeLa cells): most consistent and greatest inhibition of cell growth; also recorded: inhibitory activity | IC50 ([4]; HeLa cells, oligonucleotide + DOTMA 4 h serum-free, two days after treatment (FIG. 4), read-out: IC50, inhibition of cell growth): 0.02 µM | oligonucleotide associated with the cells, presence versus absence of DOTMA [5, 9]: 5-15 fold | time of treatment to plateau of cellular uptake [5, 9]: 1 h | oligonucleotide remaining in the cells ([5]; 20 hours post-treatment): approximately 50% | oligonucleotide localized to the nuclei ([5]; after 4 hours treatment in the presence of DOTMA): 60% | log cell kill, single treatment ([6]; 0.05 μM + DOTMA, one 4 h treatment day 1 after seeding): 1.4 log | effect of repeated treatment ([6]; 0.05 μM + DOTMA, two 4 h treatments on days 1 and 3): killed most LOX cells and no recovery was found on day 8 | IC50 ([6]; oligonucleotide + DOTMA 4 h serum-free, two days after treatment (FIG. 4), read-out: IC50, inhibition of cell growth): 0.01 µM | log cell kill [6, 8]: 1.2 log | decrease of cell growth [7]: 70-80% | decrease of mitotic cells ([7]; at 8 to 72 hours post-treatment): 70% | decrease of mitotic cells ([7]; at 4 hours): 50%

CACCCGCCTT GGCCTCCCAG (antisense CACCCGCCTTGGCCTCCCAG; chemistry not given here) [SEQ ID NO: 14, p120 antisense oligonucleotide, 3' UTR]
inhibition of the tumors (in words) [1]: marked inhibition | inhibition of cell growth (in words) ([4]; HeLa cells): inhibitory activity

CACGCCTCCC GACTCTGCCC (DNA CACGCCTCCCGACTCTGCCC; chemistry not given here) [SEQ ID NO: 15, reference compound]
log HeLa cell kill ([4]; HeLa cells): 0.2 log

GTGGGAGGCC AAGGCGGGTG (sense GTGGGAGGCCAAGGCGGGTG; chemistry not given here) [SEQ ID NO: 16, reference compound]
inhibition of cell growth (in words) ([4]; HeLa cells): No inhibitory effect

TCCCAGTCCC ACCTCCCATC (antisense TCCCAGTCCCACCTCCCATC; chemistry not given here) [SEQ ID NO: 6, p120 antisense oligonucleotide, 3' UTR]
cell growth inhibitory effect [4]: 70.7±24.8%
